Measurements: patent US8183287B2, “Pharmaceutical formulations and compositions of a selective antagonist of either CXCR2 or both CXCR1 and CXCR2 and methods of using the same for treating inflammatory disorders” (Schering Corporation, priority 2006, dated 2012)
Where two headings read alike, the source gives them in different places.

Experiments:
[1] = test system: neutrophil recruitment to the lungs; assay: neutrophil recruitment to the lungs in response to challenge, oral dosing; type: in vivo; conditions: orally administered
Excerpt: (§1) WO 02/083624 describes this compound (as Examples 360.31 and 405), process of making the same, as well as treatment of chemokine-related diseases and cancer using the same. Likewise, WO 03/080053 describes the treatment of chemokine-related diseases using this compound.

[2] = test system: neutrophil recruitment to the pleural cavities; assay: neutrophil recruitment to the pleural cavities in response to challenge, oral dosing; type: in vivo; conditions: orally administered
Excerpt: as §1

[3] = test system: carrageenan-induced paw edema; assay: carrageenan-induced paw edema; type: in vivo; conditions: rats, compared with NSAIDs
Excerpt: as §1

[4] = test system: pulmonary mucin production; assay: pulmonary mucin production, prolonged treatment; type: in vivo
Excerpt: as §1

[5] = test system: histological changes in arthritic joints; assay: histological changes in arthritic joints, prolonged treatment; type: in vivo; conditions: rats
Excerpt: as §1

[6] = clinical study (iii): multiple-dose oral pharmacokinetics, Formulation 1 capsules; type: in vivo, human; conditions: for AUC(0-t): read-out: AUC (0-24 hr) Mean; for Tmax: read-out: Tmax Median
[7] = clinical study in subjects with moderate to severe COPD; type: in vivo, human; conditions: subjects with moderate to severe COPD, 3, 10, 30 mg, 12 weeks
Experimental: This study, illustrated schematically in FIG. 4, is a double-blind, placebo-controlled, randomized, two-part study in subjects with moderate to severe COPD. Part 1 is a double-blind, placebo-controlled, randomized, rising-dose study consisting of four treatment groups enrolled in three cohorts (FIG. 4A). The treatment period for each cohort is 12 weeks in duration. […] After completing the safety analyses for Part 1 for Cohorts 1-3, Part 2 is conducted as detailed below. Part 2 is a double-blind, placebo-controlled, randomized, parallel group study consisting of four treatment groups enrolled as one cohort (FIG. 4B). The treatment period for Cohort 4 is 12 weeks in duration. […] Efficacy analyses are based solely on data collected from Part 2, Cohort 4 wherein the primary efficacy parameters measured are changes from Baseline in FEV1 and changes from Baseline in SCDS, both examined as longitudinal averages over the 12-week treatment period. […]

[8] = clinical study in subjects with severe neutrophilic asthma; type: in vivo, human; conditions: 12 weeks
Experimental: This study, illustrated schematically in FIG. 5, is a randomized, double-blind, placebo-controlled study in subjects with severe neutrophilic asthma.
Safety is assessed after approximately 30 subjects have completed 2 weeks of treatment in DRF. Variables include the effect on sputum neutrophils, PBNs, adverse events (AEs) and other safety data.
Primary Efficacy Endpoint: The primary efficacy endpoint is the asthma exacerbation status (‘yes’ for presence of an exacerbation, ‘no’ for absence) during the 12-week treatment period.

[9] = clinical study in subjects with severe psoriasis; type: in vivo, human; conditions: 28 days
Experimental: This study, illustrated schematically in FIG. 6A, was designed as a prospective, randomized, double-blind, placebo-controlled, parallel-group study in subjects with moderate to severe psoriasis.
Each treatment is administered for 28 days. After twelve patients have completed dosing, a determination is made on the progression of the study as outlined in FIG. 6B.
Clinical Assessment. At Screening, Baseline, and Days 1, 8, 15, 29, 36, and 57 the clinical psoriasis activity (PASI and physician global assessment) is determined for each patient.
Efficacy Analyses: The primary efficacy endpoint is the response defined as a ≧50% decrease from baseline in the PASI at the end of 28 days of treatment as well as PGA. The data for the secondary endpoints detailed below are listed and summarized by treatment group using descriptive statistics. Specifically, • percent reduction on Day 28 relative to baseline of psoriatic plaque cellularity, with subpopulation analysis of neutrophils (CD50, Cathepsin G) and T-lymphocytes (CD3+, CD4+, CD8+) • change from baseline in mRNA expression of Gro-α, IL-8, and CXCR2 in the psoriatic plaque and peripheral blood • change from baseline in plasma chemokine concentrations including Gro-α and IL-8

[10] = both, human, in vivo
clinical = conditions: both, human
[11] = both sexes, human, plasma, oral, 10 mg, multiple-dose 10 mg, Day 1
[12] = both sexes, human, plasma, oral, 10 mg, multiple-dose 10 mg, Day 14
[13] = both sexes, human, plasma, oral, 30 mg, multiple-dose 30 mg, Day 1
[14] = both sexes, human, plasma, oral, 30 mg, multiple-dose 30 mg, Day 14
[15] = both sexes, human, plasma, oral, 50 mg, multiple-dose 50 mg, Day 1
[16] = both sexes, human, plasma, oral, 50 mg, multiple-dose 50 mg, Day 14

Cmax [6, 11]: 76 ng/mL
AUC(0-t) [6, 11]: 137 ng·h/mL
Tmax [6, 11]: 30 min
Cmax [6, 12]: 78.1 ng/mL
AUC(0-t) [6, 12]: 156 ng·h/mL
Tmax [6, 12]: 30 min
Cmax [6, 13]: 173 ng/mL
AUC(0-t) [6, 13]: 397 ng·h/mL
Tmax [6, 13]: 30 min
Cmax [6, 14]: 159 ng/mL
AUC(0-t) [6, 14]: 414 ng·h/mL
Tmax [6, 14]: 30 min
Cmax [6, 15]: 239 ng/mL
AUC(0-t) [6, 15]: 681 ng·h/mL
Tmax [6, 15]: 45 min
Cmax [6, 16]: 279 ng/mL
AUC(0-t) [6, 16]: 825 ng·h/mL
Tmax [6, 16]: 30 min
half-life ([6]; both sexes, human, plasma, oral, multiple-dose 50 mg, Day 14, n = 7, read-out: t1/2 Mean (converted)): 828 min
steady state achieved by ([6]; multiple doses): ≤ 11 days
Median max values [10]: 0.5 to 2 h
Vd/F (clinical; in vivo): 1470 to 2200 L
half-life (clinical; plasma, oral): 678 to 1370 min
Compound: CC[C@@H](Nc1c(Nc2cccc(C(=O)N(C)C)c2O)c(=O)c1=O)c1ccc(C)o1 [Compound I]
neutrophil recruitment to the lungs ([1]; mice): effectively blocks
neutrophil recruitment to the lungs ([1]; monkeys): effectively blocks
neutrophil recruitment to the lungs ([1]; rats): effectively blocks
neutrophil recruitment to the pleural cavities ([2]; mice): effectively blocks
neutrophil recruitment to the pleural cavities ([2]; rats): effectively blocks
ability to inhibit carrageenan-induced paw edema [3]: compares very favorably with NSAIDs
pulmonary mucin production ([4]; mice): blocks
pulmonary mucin production ([4]; rats): blocks
histological changes in arthritic joints [5]: blocks
sputum neutrophil and peripheral blood neutrophils [7]: reduction in sputum neutrophil and peripheral blood neutrophils
asthma exacerbation [8]: reduction in asthma exacerbation
PASI [9]: reduction in PASI
